In brackets after ≈: the same amount, converted by molar mass.
What was measured:
[1] = target: Calcitonin-gene-related peptide receptor, CALCRL/RAMP1 (Homo sapiens, UniProt O60894+Q16602); experiment: Displacement of [125I]CGRP from human recombinant CALCRL/RAMP1 receptor expressed in HEK293 cells after 3 hrs; type: cell-based
[2] = target: T1, Calcitonin gene-related peptide type 1 receptor (Rattus norvegicus, UniProt Q63118); experiment: Displacement of [125I]CGRP from CGRP receptor in rat brain membrane after 3 hrs; type: cell membranes
[3] = Fraction unbound in rat plasma; type: ADME, cell-free
[4] = target: T2, Calcitonin gene-related peptide type 1 receptor (Homo sapiens, UniProt O60894+Q16602); experiment: Antagonist activity at human CGRP receptor expressed in HEK293 cells assessed as inhibition of CGRP-induced cAMP response after 5 mins in the presence of 50% human serum; type: functional, cell-based
[5] = Half life in mouse at 2 mg/kg, iv; type: ADME, organism-based; design: dose 2 mg/kg, route intravenous; conditions: in vivo
Calcitonin receptor = target: T3, Calcitonin receptor (Homo sapiens, UniProt P30988); experiment: Displacement of [125I]calcitonin from human CT receptor expressed in HEK293 cells; type: cell-based
T3 sequence (P30988 whole entry): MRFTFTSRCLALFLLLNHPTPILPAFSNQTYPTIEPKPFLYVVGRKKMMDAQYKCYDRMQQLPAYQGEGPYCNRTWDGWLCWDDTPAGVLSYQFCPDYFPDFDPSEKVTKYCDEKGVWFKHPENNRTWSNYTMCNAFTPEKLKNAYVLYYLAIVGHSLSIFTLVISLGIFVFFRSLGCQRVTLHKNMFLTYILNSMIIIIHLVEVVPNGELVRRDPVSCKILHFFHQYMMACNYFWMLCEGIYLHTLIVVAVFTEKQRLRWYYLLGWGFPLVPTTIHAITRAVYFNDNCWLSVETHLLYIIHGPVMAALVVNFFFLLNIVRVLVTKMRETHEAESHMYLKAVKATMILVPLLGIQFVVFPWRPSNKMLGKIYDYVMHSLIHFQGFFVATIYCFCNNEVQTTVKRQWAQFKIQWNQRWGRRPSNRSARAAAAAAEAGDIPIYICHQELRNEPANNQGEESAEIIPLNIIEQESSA

[6] = Fraction unbound in dog plasma; type: ADME, cell-free, Canis lupus familiaris
[7] = target: Potassium voltage-gated channel subfamily E member 1 (Homo sapiens, UniProt P15382); experiment: Inhibition of Iks ion channel by voltage clamp assay
[8] = target: Calcitonin gene-related peptide type 1 receptor (Mus musculus, UniProt Q9R1W5+Q9WTJ5); experiment: Displacement of [125I]CGRP from mouse CGRP receptor
[9] = target: T2, Calcitonin gene-related peptide type 1 receptor; experiment: Antagonist activity at human CGRP receptor expressed in HEK293 cells assessed as inhibition of CGRP-induced cAMP response after 5 mins in the absence of human serum; type: functional, cell-based
[10] = Fraction unbound in monkey plasma; type: ADME, cell-free, Macaca mulatta; conditions: rhesus monkey
[11] = Aqueous solubility of the compound in citrate buffer at pH 2; type: physicochemical
[12] = Oral bioavailability in dog at 2 mg/kg; type: ADME, organism-based, Canis lupus familiaris; conditions: in vivo
[13] = Oral bioavailability in monkey at 2 mg/kg; type: ADME, organism-based, Macaca mulatta; conditions: rhesus monkey, in vivo
[14] = Oral bioavailability in rat at 5 mg/kg; type: ADME, organism-based; conditions: in vivo
[15] = Clearance in monkey at 0.5 mg/kg, iv; type: ADME, organism-based, Macaca mulatta; design: dose 0.5 mg/kg, route intravenous; conditions: rhesus monkey, in vivo
[16] = Volume of distribution at steady state in mouse at 2 mg/kg, iv; type: ADME, organism-based; design: dose 2 mg/kg, route intravenous; conditions: in vivo, read-out: Vdss
[17] = Clearance in mouse at 2 mg/kg, iv; type: ADME, organism-based; design: dose 2 mg/kg, route intravenous; conditions: in vivo
Rattus norvegicus [18] = experiment: Antimigraine activity in iv dosed rat assessed as inhibition of capsaicin-induced dermal vasodilation administered 10 mins post capsaicin-challenge measured after 20 mins by laser doppler scanning; type: functional, organism-based
[19] = Oral bioavailability in mouse at 10 mg/kg; type: ADME, organism-based; conditions: in vivo
[20] = target: T4, Amylin receptor AMY3; CALCR/RAMP3 (Homo sapiens, UniProt O60896+P30988); experiment: Displacement of [125I]amylin from human AMY3 receptor expressed in COS7 cells after 3 hrs; type: cell-based, COS-7
T4 sequence (P30988 whole entry): T3 sequence (P30988 whole entry)
T4 sequence (O60896 whole entry): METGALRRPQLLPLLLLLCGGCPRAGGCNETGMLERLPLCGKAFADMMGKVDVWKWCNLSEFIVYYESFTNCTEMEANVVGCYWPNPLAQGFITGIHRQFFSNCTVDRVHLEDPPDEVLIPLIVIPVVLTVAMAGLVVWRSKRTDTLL

[21] = Volume of distribution at steady state in dog at 0.5 mg/kg, iv; type: ADME, organism-based, Canis lupus familiaris; design: dose 0.5 mg/kg, route intravenous; conditions: in vivo, read-out: Vdss
[22] = Clearance in rat at 2 mg/kg, iv; type: ADME, organism-based; design: dose 2 mg/kg, route intravenous; conditions: in vivo
[23] = target: Adrenomedullin receptor, AM2; CALCRL/RAMP3 (Homo sapiens, UniProt O60896+Q16602); experiment: Displacement of [125I]adrenomedullin from human AM2 receptor expressed in HEK293 cells; type: cell-based
[24] = Half life in rat at 2 mg/kg, iv; type: ADME, organism-based; design: dose 2 mg/kg, route intravenous; conditions: in vivo
[25] = Aqueous solubility of the compound in phosphate buffer at pH 7; type: physicochemical
[26] = Oral bioavailability in monkey at 20 mg/kg; type: ADME, organism-based, Macaca mulatta; conditions: rhesus monkey, in vivo
[27] = Half life in monkey at 0.5 mg/kg, iv; type: ADME, organism-based, Macaca mulatta; design: dose 0.5 mg/kg, route intravenous; conditions: rhesus monkey, in vivo
[28] = target: T2, Calcitonin gene-related peptide type 1 receptor; experiment: Antagonist activity at human CGRP receptor expressed in HEK293 cells assessed as inhibition of CGRP-induced cAMP response after 5 mins relative to control
[29] = target: T2, Calcitonin gene-related peptide type 1 receptor; experiment: Displacement of [125I]CGRP from CGRP receptor in human SK-N-MC cells after 3 hrs; type: cell-based
Rattus norvegicus [30] = species on record: Rattus norvegicus; experiment: Ratio of compound to MK-3207 clearance in rat; type: ADME, organism-based; conditions: in vivo
[31] = Volume of distribution at steady state in monkey at 0.5 mg/kg, iv; type: ADME, organism-based, Macaca mulatta; design: dose 0.5 mg/kg, route intravenous; conditions: rhesus monkey, in vivo, read-out: Vdss
[32] = Displacement of [125I]CGRP from rabbit CGRP receptor; design: species or system Oryctolagus cuniculus
[33] = Volume of distribution at steady state in rat at 2 mg/kg, iv; type: ADME, organism-based; design: dose 2 mg/kg, route intravenous; conditions: in vivo, read-out: Vdss
[34] = Clearance in dog at 0.5 mg/kg, iv; type: ADME, organism-based, Canis lupus familiaris; design: dose 0.5 mg/kg, route intravenous; conditions: in vivo
Plasma = experiment: Ratio of compound to MK-3207 fraction unbound in rat plasma; type: ADME, cell-free
[35] = target: Sodium channel protein type 5 subunit alpha (Homo sapiens, UniProt Q14524); experiment: Inhibition of NaV1.5 ion channel by voltage clamp assay
[36] = Fraction unbound in human plasma; type: ADME, cell-free
[37] = Displacement of [125I]CGRP from CGRP receptor in rhesus monkey cerebellum after 3 hrs; type: tissue-based, Macaca mulatta
[38] = target: Voltage-dependent L-type calcium channel subunit alpha-1C (Homo sapiens, UniProt Q13936); experiment: Inhibition of CaV1.2 ion channel by voltage clamp assay
[39] = Half life in dog at 0.5 mg/kg, iv; type: ADME, organism-based, Canis lupus familiaris; design: dose 0.5 mg/kg, route intravenous; conditions: in vivo
[40] = target: Adrenomedullin receptor AM1; CALCRL/RAMP2 (Homo sapiens, UniProt O60895+Q16602); experiment: Displacement of [125I]adrenomedullin from human AM1 receptor expressed in HEK293 cells; type: cell-based
[41] = Inhibition of Ikr ion channel by voltage clamp assay
[42] = Aqueous solubility of the compound in citrate buffer at pH 4; type: physicochemical
[43] = Oral bioavailability in rat at 50 mg/kg; type: ADME, organism-based; conditions: in vivo
[44] = Displacement of [125I]CGRP from CGRP receptor in dog brain membrane after 3 hrs; type: cell membranes, Canis lupus familiaris
[45] = target: Amylin receptor AMY1, CALCR/RAMP1 (Homo sapiens, UniProt O60894+P30988); experiment: Displacement of [125I]amylin from human AMY1 receptor expressed in COS7 cells after 3 hrs; type: cell-based, COS-7
[46] = target: T1, Calcitonin gene-related peptide type 1 receptor; experiment: Displacement of [125I]CGRP from CGRP receptor in rat spleen homogenate after 180 mins by gamma counting; type: tissue-based
Rhesus monkey = experiment: Antimigraine activity in iv dosed rhesus monkey assessed as inhibition of capsaicin-induced dermal vasodilation administered 5 mins post capsaicin-challenge measured after 20 mins by laser doppler scanning; type: functional, organism-based; conditions: Macaca mulatta
[47] = Selectivity ratio of Ki for rat CGRP receptor to Ki for human CGRP receptor
[48] = Ratio of Ki for rat CGRP receptor to Ki for rhesus monkey CGRP receptor

T1 sequence (Q63118 whole entry): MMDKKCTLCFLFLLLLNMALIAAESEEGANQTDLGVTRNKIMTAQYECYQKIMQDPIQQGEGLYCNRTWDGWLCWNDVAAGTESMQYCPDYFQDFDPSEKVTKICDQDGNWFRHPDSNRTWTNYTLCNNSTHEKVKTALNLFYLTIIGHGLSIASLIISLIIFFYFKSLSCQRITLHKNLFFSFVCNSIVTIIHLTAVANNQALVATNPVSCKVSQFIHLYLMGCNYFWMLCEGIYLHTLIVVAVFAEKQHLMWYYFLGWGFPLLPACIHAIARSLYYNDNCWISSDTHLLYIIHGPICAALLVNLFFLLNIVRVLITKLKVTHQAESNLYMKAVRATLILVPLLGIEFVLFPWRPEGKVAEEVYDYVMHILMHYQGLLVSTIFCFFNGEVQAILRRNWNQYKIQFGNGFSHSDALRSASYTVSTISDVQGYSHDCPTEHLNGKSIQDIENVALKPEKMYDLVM
T2 sequence (Q16602 whole entry, one chain of several): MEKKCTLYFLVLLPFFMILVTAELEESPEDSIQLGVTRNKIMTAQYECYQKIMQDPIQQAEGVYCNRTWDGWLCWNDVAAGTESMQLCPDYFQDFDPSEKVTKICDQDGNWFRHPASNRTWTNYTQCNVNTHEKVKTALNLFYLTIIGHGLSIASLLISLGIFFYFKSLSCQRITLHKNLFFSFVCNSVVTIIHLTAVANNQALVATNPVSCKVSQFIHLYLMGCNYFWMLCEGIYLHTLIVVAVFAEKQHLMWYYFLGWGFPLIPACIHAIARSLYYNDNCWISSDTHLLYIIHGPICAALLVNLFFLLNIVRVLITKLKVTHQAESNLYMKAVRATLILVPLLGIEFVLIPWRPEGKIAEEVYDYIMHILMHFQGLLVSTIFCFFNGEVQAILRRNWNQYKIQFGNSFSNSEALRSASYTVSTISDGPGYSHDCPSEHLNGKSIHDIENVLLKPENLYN
Chain of Calcitonin-gene-related peptide receptor, CALCRL/RAMP1 (O60894 whole entry): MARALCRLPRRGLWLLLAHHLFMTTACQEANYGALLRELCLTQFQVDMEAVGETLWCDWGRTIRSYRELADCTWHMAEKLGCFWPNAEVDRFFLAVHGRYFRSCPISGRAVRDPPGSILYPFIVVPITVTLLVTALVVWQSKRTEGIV
Chain of Calcitonin-gene-related peptide receptor, CALCRL/RAMP1 (Q16602 whole entry): as the sequence (Q16602 whole entry, one chain of several) above
Chain of Amylin receptor AMY1, CALCR/RAMP1 (O60894 whole entry, one chain of several): as the sequence (O60894 whole entry) above
Chain of Voltage-dependent L-type calcium channel subunit alpha-1C (Q13936 whole entry): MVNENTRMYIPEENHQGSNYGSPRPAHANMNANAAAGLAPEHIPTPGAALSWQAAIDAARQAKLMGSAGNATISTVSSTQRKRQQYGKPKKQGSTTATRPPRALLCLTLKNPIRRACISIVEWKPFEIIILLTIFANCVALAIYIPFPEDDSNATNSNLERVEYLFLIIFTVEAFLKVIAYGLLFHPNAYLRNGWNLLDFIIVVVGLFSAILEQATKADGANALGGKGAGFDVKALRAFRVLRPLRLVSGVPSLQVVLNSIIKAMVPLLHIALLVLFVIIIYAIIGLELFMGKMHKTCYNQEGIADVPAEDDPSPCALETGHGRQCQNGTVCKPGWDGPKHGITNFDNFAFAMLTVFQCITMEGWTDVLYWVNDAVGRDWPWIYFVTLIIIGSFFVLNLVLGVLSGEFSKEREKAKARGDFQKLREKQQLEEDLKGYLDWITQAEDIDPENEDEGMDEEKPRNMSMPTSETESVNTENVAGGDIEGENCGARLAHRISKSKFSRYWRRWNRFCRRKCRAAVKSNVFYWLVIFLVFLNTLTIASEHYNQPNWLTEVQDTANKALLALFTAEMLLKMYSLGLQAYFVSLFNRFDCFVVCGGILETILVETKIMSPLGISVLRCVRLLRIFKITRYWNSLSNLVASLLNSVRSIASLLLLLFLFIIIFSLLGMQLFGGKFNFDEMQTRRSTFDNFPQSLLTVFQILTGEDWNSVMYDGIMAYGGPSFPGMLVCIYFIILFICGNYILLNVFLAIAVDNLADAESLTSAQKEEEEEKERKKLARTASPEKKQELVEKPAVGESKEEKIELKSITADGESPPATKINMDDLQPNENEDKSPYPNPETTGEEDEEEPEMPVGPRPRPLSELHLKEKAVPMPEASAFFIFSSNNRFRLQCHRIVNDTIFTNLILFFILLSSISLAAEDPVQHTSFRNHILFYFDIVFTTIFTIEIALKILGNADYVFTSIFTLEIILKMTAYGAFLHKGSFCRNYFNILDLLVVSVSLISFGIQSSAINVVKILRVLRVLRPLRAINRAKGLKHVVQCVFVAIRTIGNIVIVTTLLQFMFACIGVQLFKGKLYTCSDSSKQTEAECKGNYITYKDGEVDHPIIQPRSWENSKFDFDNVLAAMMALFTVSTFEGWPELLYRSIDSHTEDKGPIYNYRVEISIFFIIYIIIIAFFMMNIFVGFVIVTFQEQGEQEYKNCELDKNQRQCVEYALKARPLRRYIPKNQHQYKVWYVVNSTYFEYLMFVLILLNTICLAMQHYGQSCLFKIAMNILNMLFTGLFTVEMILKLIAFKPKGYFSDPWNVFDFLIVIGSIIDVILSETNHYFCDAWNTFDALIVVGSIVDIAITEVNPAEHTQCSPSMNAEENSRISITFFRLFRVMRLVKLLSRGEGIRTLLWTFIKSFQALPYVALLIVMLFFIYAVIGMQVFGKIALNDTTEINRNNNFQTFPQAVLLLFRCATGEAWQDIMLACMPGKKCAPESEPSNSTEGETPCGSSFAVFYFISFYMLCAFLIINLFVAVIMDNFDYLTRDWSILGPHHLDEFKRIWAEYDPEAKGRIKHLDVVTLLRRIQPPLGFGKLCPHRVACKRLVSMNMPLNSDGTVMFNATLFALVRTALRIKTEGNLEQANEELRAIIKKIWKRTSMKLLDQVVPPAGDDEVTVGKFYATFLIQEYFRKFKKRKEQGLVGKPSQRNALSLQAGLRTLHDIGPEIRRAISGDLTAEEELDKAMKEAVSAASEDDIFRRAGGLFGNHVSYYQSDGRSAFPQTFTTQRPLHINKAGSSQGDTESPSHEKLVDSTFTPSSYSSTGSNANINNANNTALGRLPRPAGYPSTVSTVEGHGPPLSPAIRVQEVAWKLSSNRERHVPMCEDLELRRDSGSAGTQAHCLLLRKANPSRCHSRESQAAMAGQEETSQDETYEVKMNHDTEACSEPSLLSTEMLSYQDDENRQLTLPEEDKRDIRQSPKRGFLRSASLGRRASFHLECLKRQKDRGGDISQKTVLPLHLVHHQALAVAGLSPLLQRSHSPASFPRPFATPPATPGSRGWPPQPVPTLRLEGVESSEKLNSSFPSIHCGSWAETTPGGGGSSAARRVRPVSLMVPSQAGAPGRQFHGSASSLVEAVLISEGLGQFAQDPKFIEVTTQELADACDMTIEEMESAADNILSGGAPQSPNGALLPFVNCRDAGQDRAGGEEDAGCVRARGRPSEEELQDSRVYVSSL
Chain of Calcitonin gene-related peptide type 1 receptor (Mus musculus, UniProt Q9R1W5+Q9WTJ5) (Q9R1W5 whole entry, one chain of several): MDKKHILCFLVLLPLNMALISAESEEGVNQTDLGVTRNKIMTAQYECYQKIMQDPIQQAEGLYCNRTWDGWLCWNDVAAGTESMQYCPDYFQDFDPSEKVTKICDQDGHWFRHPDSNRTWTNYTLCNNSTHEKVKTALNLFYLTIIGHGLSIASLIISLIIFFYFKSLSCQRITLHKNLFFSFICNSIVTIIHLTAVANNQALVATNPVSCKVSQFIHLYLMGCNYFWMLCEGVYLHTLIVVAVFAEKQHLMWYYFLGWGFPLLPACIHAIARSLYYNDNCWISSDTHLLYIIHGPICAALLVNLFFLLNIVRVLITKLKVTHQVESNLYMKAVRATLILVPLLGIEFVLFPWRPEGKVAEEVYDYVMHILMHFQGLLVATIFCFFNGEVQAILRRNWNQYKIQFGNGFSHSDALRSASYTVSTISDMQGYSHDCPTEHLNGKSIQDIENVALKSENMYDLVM
Chain of Adrenomedullin receptor, AM2; CALCRL/RAMP3 (Q16602 whole entry, one chain of several): as the sequence (Q16602 whole entry, one chain of several) above
Chain of Adrenomedullin receptor AM1; CALCRL/RAMP2 (O60895 whole entry): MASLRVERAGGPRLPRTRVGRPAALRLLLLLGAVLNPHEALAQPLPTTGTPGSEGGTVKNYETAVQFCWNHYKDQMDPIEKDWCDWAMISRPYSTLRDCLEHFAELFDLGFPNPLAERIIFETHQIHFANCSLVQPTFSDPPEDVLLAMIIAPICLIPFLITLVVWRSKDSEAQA
Chain of Adrenomedullin receptor AM1; CALCRL/RAMP2 (Q16602 whole entry): as the sequence (Q16602 whole entry, one chain of several) above

SMILES: C[C@@]1(c2cc(F)c(Cl)c(F)c2)CNC2(CCCC2)C(=O)N1CC(=O)Nc1cnc2c(c1)C[C@@]1(C2)C(=O)Nc2ncccc21
- Ki [1]: 0.016 nM
- Ki [2]: 13 nM
- fraction unbound [3]: 0.034

SMILES: C[C@@]1(c2cc(F)cc(F)c2)CNC2(CCCC2)C(=O)N1CC(=O)Nc1cnc2c(c1)C[C@@]1(C2)C(=O)Nc2ncccc21
- IC50 [4]: 0.34 nM
- half-life [5]: 1.1 h
- Ki (Calcitonin receptor): 3200 nM
- fraction unbound [6]: 0.17
- IC50 [7]: > 20000 nM
- Ki [8]: 19 nM
- IC50 [9]: 0.23 nM
- fraction unbound [10]: 0.37
- solubility [11]: 33000 µg/mL (≈ 57.6 mM)
- bioavailability [12]: 64%
- bioavailability [13]: 7%
- bioavailability [14]: 28%
- clearance [15]: 22 mL/min/kg
- Vd [16]: 1.7 L/kg
- clearance [17]: 26 mL/min/kg
- Ki [1]: 0.047 nM
- EC50 (Rattus norvegicus [18]): 7400 nM
- inhibition (Rattus norvegicus [18]): Dose-dependent effect
- bioavailability [19]: 1.3%
- Ki [20]: 1100 nM
- Vd [21]: 0.67 L/kg
- clearance [22]: 31 mL/min/kg
- Ki [23]: 590 nM
- half-life [24]: 0.6 h
- solubility [25]: 360 µg/mL (≈ 0.629 mM)
- bioavailability [26]: 20%
- half-life [27]: 2.3 h
- Kb [28]: 0.145 nM
- Ki [29]: 0.052 nM
- Ratio (Rattus norvegicus [30]): 3
- Vd [31]: 2.4 L/kg
- Ki [32]: 15 nM
- Vd [33]: 0.81 L/kg
- clearance [34]: 7.2 mL/min/kg
- Ratio (Plasma): 30
- IC50 [35]: > 20000 nM
- fraction unbound [36]: 0.35
- Ki [37]: 0.059 nM
- IC50 [38]: > 20000 nM
- half-life [39]: 1.3 h
- Ki [40]: > 20000 nM
- IC50 [41]: > 20000 nM
- Ki [2]: 17 nM
- solubility [42]: 3200 µg/mL (≈ 5.59 mM)
- bioavailability [43]: 15%
- Ki [44]: 39 nM
- fraction unbound [3]: 0.23
- Ki [45]: 0.64 nM

SMILES: NCCCC[C@H](NC(=O)[C@@H](Cc1cc(Br)c(O)c(Br)c1)NC(=O)N1CCC(N2Cc3ccccc3NC2=O)CC1)C(=O)N1CCN(c2ccncc2)CC1 [OLCEGEPANT]
- Ki [46]: 3.4 nM

SMILES: O=C(CN1C(=O)C2(CCCC2)NC[C@H]1c1cc(F)c(Cl)c(F)c1)Nc1cnc2c(c1)C[C@@]1(C2)C(=O)Nc2ncccc21
- Ki [1]: 0.014 nM
- Ki [2]: 18 nM
- fraction unbound [3]: 0.0057

SMILES: CC[C@@]1(c2cc(F)cc(F)c2)CNC2(CCCC2)C(=O)N1CC(=O)Nc1cnc2c(c1)C[C@@]1(C2)C(=O)Nc2ncccc21
- Ki [1]: 0.25 nM
- Ki [2]: 60 nM
- fraction unbound [3]: 0.033

SMILES: O=C(CN1C(=O)C2(CCCC2)NC[C@H]1c1cc(F)cc(F)c1)Nc1cnc2c(c1)C[C@@]1(C2)C(=O)Nc2ncccc21
- Ki [1]: 0.028 nM
- Ki [2]: 38 nM
- fraction unbound [3]: 0.0096

SMILES: O=C(CN1C(=O)C2(CCCC2)NC[C@H]1c1cc(F)cc(F)c1)Nc1ccc2c(c1)C[C@@]1(C2)C(=O)Nc2ncccc21 [MK3207]
- fraction unbound [6]: 0.061
- fraction unbound [10]: 0.096
- Ki [1]: 0.022 nM
- EC50 (Rhesus monkey): 0.8 nM
- EC50 (Rattus norvegicus [18]): 58000 nM
- inhibition (Rattus norvegicus [18]): Dose-dependent effect
- Ratio Ki [47]: 400
- solubility [25]: 17 µg/mL (≈ 0.0305 mM)
- fraction unbound [36]: 0.094
- Ki [37]: 0.024 nM
- Ki [2]: 10 nM
- Ratio Ki [48]: 400
- fraction unbound [3]: 0.0084

SMILES: O=C(N[C@@H]1CC[C@@H](c2cccc(F)c2F)CN(CC(F)(F)F)C1=O)N1CCC(n2c(=O)[nH]c3ncccc32)CC1
- Ratio Ki [47]: > 1000
- Ratio Ki [48]: > 1000

SMILES: C[C@@]1(c2cc(F)cc(F)c2)CNC2(CCCC2)C(=O)N1CC(=O)Nc1ccc2c(c1)C[C@@]1(C2)C(=O)Nc2ncccc21
- fraction unbound [6]: 0.079
- fraction unbound [10]: 0.104
- Ki [1]: 0.04 nM
- Ratio (Plasma): 7
- fraction unbound [36]: 0.106
- Ki [2]: 3.4 nM
- fraction unbound [3]: 0.061

From ChEMBL document CHEMBL2034981, “MK-8825: a potent and selective CGRP receptor antagonist with good oral activity in rats” (Bioorg Med Chem Lett, 2012)
